Patent publication US9888679B2, “Protection of progenitor cells and regulation of their differentiation” (Proteobioactives Pty Ltd, priority 2007, dated 2018)

Key:
Assay type in all cases: cell-based
human progenitor cells [1] = test: Proteoglycan synthesis in micromass cultures, 5 days; conditions: FIG. 17
Text: FIG. 17. Bar graphs showing the concentration dependent effects of PPS on proteoglycan synthesis by human progenitor cells in micromass cultures for 5 days. Data is presented as 35S-GAG radioactivity and as a percentage of control taken as 100%. * P<0.05 relative to control.
FIG. 19. Bar graphs showing the concentration dependent effects of (A) Hyaluronan (Supartz™) and (B) Dextran Polysulfate on proteoglycan synthesis by human progenitor cells in micromass cultures for 5 days. Data is presented as ^35S-GAG radioactivity and as a percentage of control, taken as 100% or as DPM/ug DNA. * P<0.05 relative to control.
The technique used was based on that described by (Denker A E, Haas A R, Nicoll S B and Tuan R S. Chondrogenic differentiation of murine C3H10T1/2 multipotential progenitor cells: I. Stimulation by bone morphogenetic protein-2 in high density micromass cultures. Differentiation (1999); 64: 67-76). Briefly murine Progenitor cells (cell lines C3H10T1/2 or ATDC5) purchased from RIKEN Cell Bank (Tsukuba, Japan) or human immunoselected Stro-1+ Progenitor cells (Mesoblast Ltd, Melbourne, Australia) Ten microlitres (10 μl) of a suspension of the progenitor cells (1×10^7 cells/ml in Ham's F12 medium+10% FBS) were applied to individual wells of a 24-well plates. After incubatation at 37° C. in a humidified atmosphere of 5% CO2/95% air for 2-3 hours, 900 μl of Ham's F12 medium (10% FBS) and 100 μl of PPS solution in the same medium were added slowly into the wells to afford final concentrations of PPS in each of 0, 0.1, 0.5, 1.0, 2.5, 5.0, 10.0, 20.0 μg/ml alone or in combination with rhNC4 (0, 0.1, 0.5, 1.0, 2.5, 5.0, 10.0, 25.0 μg/ml). Each drug concentration was repeated in triplicate. The cells were maintained in culture for up to 10 days. The medium with/without drugs was changed every 3 days but 24 hours before termination of the experiment 80 μl of 50 μCi/ml ^35S-H2SO4 was added to achieve a final ^35SO4 concentration of 5 μCi/ml. The following day, the cells in one of the plates were trypsinized with 150 μl/well of 2.5% trypsin and separated from the medium by centrifugation at 800 g for 10 minutes, washed with 500 μl of 1×PBS and stored in liquid nitrogen for RNA and/or DNA extraction and analysis. Media and supernatants were combined in one tube for each concentration of PPS used. To the tubes was added, 200 μl of 5× Papain solution [2.5 mg/ml Papain, 7.9 mg/ml L-Cysteine in Papain buffer (0.1 M NaAC, 5 mM EDTA, pH6.0)] and the solution incubated at 65° C. for 2 hours. After papain digestion, Four aliquots of 200 μl of digested solution were transferred to a 96-well plate (200 μl/well). The ^35S-GAG released by the digestion step were separated from the free ^35SO4 by adding 20 μl 5% CPC and 10 μl 1 mg/ml CSA with gentle shaking at 300 rpm RT for 20-30 min to precipitate the ^35S-GAG-CPC complexes. The precipitates were collected by filtered through glass fibre filters using a cell harvester. The filters were then air-dried and discs punched to scintillation vials. 3 ml/vial scintillation cocktail liquid was added and vortexed for 30-45 sec. The radioactivity of ^35S—SO4 incorporated the ^35S-GAG-CPC complexes was measured by scintillation counting.
Data is presented as 35S-GAG radioactivity and as a percentage of control taken as 100%. * P<0.05 relative to control.
Similar experiments were undertaken using Hyaluronic acid (SuperArtz (SKK, Tokyo, Japan)) and Dextran polysulfate (MW=5000) (Sigma, Sydney, Australia) in place of PPS. […] Data is presented as 35S-GAG radioactivity and as a percentage of control taken as 100% or as DPM/ug DNA. * P<0.05 relative to control.

[2] = system: murine progenitor cells (C3H10T1-2); test: Proteoglycan synthesis in micromass cultures, 6 and 9 days; conditions: FIG. 16
Protocol: FIG. 16. A bar graph showing the concentration dependent effects of PPS on proteoglycan synthesis by murine progenitor cells (C3H10T1-2) in micromass cultures for 6 days and 9 days. PPS was included in the media (Ham's F12+10% FCS) and was changed every 48 hours. ^35S—SO4 was added 24 hours before culture termination. Synthesis normalized to DNA content. * P<0.05, **P<0.005, ***P<0.0005 relative to controls.
The technique used was based on that described by (Denker A E, Haas A R, Nicoll S B and Tuan R S. Chondrogenic differentiation of murine C3H10T1/2 multipotential progenitor cells: I. Stimulation by bone morphogenetic protein-2 in high density micromass cultures. Differentiation (1999); 64: 67-76). Briefly murine Progenitor cells (cell lines C3H10T1/2 or ATDC5) purchased from RIKEN Cell Bank (Tsukuba, Japan) or human immunoselected Stro-1+ Progenitor cells (Mesoblast Ltd, Melbourne, Australia) Ten microlitres (10 μl) of a suspension of the progenitor cells (1×10^7 cells/ml in Ham's F12 medium+10% FBS) were applied to individual wells of a 24-well plates. […] The radioactivity of ^35S—SO4 incorporated the ^35S-GAG-CPC complexes was measured by scintillation counting. […]

human progenitor cells [3] = test: IL-4/IFN-gamma induced apoptosis, Annexin V staining
Protocol: FIG. 6. The Effects of Pentosan Polysulfate (PPS) on Human progenitor cells treated with apoptotic agents. Human progenitor cells were plated in serum-free media supplemented with PPS at the indicated concentrations. Progenitor cell apoptosis was induced by the addition of a combination of 30 ng/ml IL-4 plus 30,000 U/ml IFN-gamma. Following 5 days culture, cells were harvested by trypsinisation and viabilities assessed by Annexin V staining.
Human progenitor cells were plated in serum-free media supplemented with PPS at concentrations of 0, 1, 2, 5 and 10 micrograms/mL. Progenitor cell apoptosis was induced by the addition of a combination of 30 ng/ml IL-4 30,000 U/ml IFN gamma. Following 5 days culture, cells were harvested by trypsinisation and viabilities assessed by Annexin V staining as previously described (Kortesidis A, A Zannettino, S Isenmann, S Shi, T Lapidot and S Gronthos. (2005). Stromal-derived factor-1 promotes the growth, survival, and development of human bone marrow stromal stem cells. Blood 105:3793-3801).
The experiment was undertaken in a 96 well plate containing 50,000 progenitor cells/well.

pentosan polysulfate [PPS]
maximum stimulation of PG synthesis (human progenitor cells [1]; 2.5 micrograms/mL, 5 day micromass cultures): 30% | proteoglycan synthesis (human progenitor cells [1]; PPS 0.5-10 μg/ml, 5 day micromass): Increased proteoglycan synthesis | uptake of 35S into newly synthesized PG ([2]; 1-20 micrograms/mL, micromass): Highly significant stimulation | stimulation of proteoglycan synthesis ([2]; 1 microgram/mL, nine days in micromass cultures): 100% | PPS concentration with best results on apoptosis (human progenitor cells [3]; FIG. 6): 10 µg/mL | reduction in IFN-gamma/IL-4-induced apoptosis (Annexin V positive cells) (human progenitor cells [3]; PPS in excess 1 ug/ml, 5 days culture, FIG. 6): two-fold reduction | cell apoptosis (human progenitor cells [3]; all concentrations of PPS (1, 2, 5, 10 micrograms/mL)): reduced | reduction of apoptosis (human progenitor cells [3]; concentrations above 1 microgram/mL, incubated with IL-4 and IFN-gamma, FIG. 6): about 50%
